# Laboratory results reported in publication PMC10951066, “The self-reactive FVIII T cell repertoire in healthy individuals relies on a short set of epitopes and public clonotypes” (Frontiers in Immunology, 2024).
# Tests used:
# [1] = test system: CD4 T cells from healthy donors; experiment: Large-scale CD4 T cell epitope mapping by IFN-γ ELISPOT (16 donors); format: cell-based, human; conditions: for nb positive T cell lines: across all 16 donors; for cumulative donor coverage (%): cumulative over peptides ranked by donor coverage; for Donor coverage ( %): of 16 donors; for responding donors: of 16 healthy donors, individual peptide 10 µg/ml; for response intensity ( %): percentage of 872 FVIII-specific T cell lines
# Source text: PBMCs were purified from the whole blood of anonymous healthy donors, who gave informed consent (Etablissement Français du Sang, Rungis, France), using Ficoll-Paque®. Monocyte-derived dendritic cells (DCs) were produced from cells isolated using Percoll gradient by 5 days of culture in AIM-V medium (Invitrogen, Villebon-sur-Yvette, France) supplemented with 1,000 U/ml recombinant human (rh) IL-4 and rhGM-CSF (both from R&D Systems, Lille, France). Mature DCs were produced by two supplementary days of culture in the presence of LPS (1 µg/ml) and R848 (10µg/ml). CD4 T cells were isolated from autologous PBMCs by positive selection using magnetic labeling with anti-CD4 mAbs conjugated to magnetic microbeads followed by magnetic cell sorting, as recommended by the manufacturer (Miltenyi Biotec, Bergisch Gladbach, Germany). Immature DCs were loaded overnight at 37 °C with either 0.2 µM of rFVIII, 0.2 µM of ovalbumin, or 0.25 µM of KLH in 96-well U-bottom plates, while mature DCs were used for FVIII peptides (10 ug/ml). CD4 T cell lines were generated in vitro in IMDM (Invitrogen) supplemented with 10% human serum, 0.24 mM glutamine, 0.55 mM asparagine, 1.5 mM arginine (all amino acids from Sigma-Aldrich), 50 U/mL penicillin/50 μg/mL of streptomycin (Invitrogen), 20 IU/mL human IL-2, and 17 IU/ml human IL-7 (premium-grade; Miltenyi Biotec) by three once-per-week rounds of stimulation of CD4 T cells (200,000 per well) with autologous DCs (20,000 per well). 10,000 lymphocytes were collected at day 19 from each T cell line (expanded T cells contained in one well) and their specificity was assessed by using IFN-g ELISPOT.
# The T cell lines and APCs were plated at equal number for both stimulated and unstimulated control conditions. […] The spot number was determined by using the ELISPOT Reader System (Autoimmun Diagnostika, Ebinger, Germany). HLA restriction was assessed using monoclonal antibodies (10 μg/ml) specific to HLA-DP (B7/21), HLA-DQ (SPVL3), or HLA-DR (L243).
# Based on the T cell epitope prediction software NetMHCpan4.0 ([23]), we selected 63 20-mer peptides that are predicted for their ability to bind promiscuously, with a percentile score below 10%, at least four HLA class II molecules from a selection of 15 preponderant HLA-DR alleles in our panel (as shown in ST1). […] A total of 16 healthy donors with unrelated HLA typing (ST2) were used as sources of T cells to identify FVIII-specific CD4 T cell epitopes. Specific T cell lines were generated by in vitro T cell culture using FVIII and KLH. The peptide specificity of the T cell lines raised against FVIII was assessed by two independent IFN-γ ELISPOT using peptide pools and individual peptides. […] Furthermore, four independent healthy donors were used as sources of T cells to characterize the HLA restriction and to assess the reactivity of T cell lines generated with the 18 peptides toward rFVIII. T cell lines were amplified in vitro for 28 days through stimulation with the pool of 18 peptides and then tested through IFN-γ ELISPOT.
# [2] = target: HLA-DRB1*0701 (Homo sapiens, UniProt P01903+P01911, A100R/A102G/A103Q/D57E/D86V/E43K/F76Y/K127E/L162R/M171V/P40G/Q125H/Q99D/R33Q/R42Y/R54Q/S133A/S66F/T210M/V115G/Y107V/Y59L/Y89S); experiment: Peptide-MHCII competition binding assay; conditions: competition ELISA, pH 5.9, peptide 90.000nM – 0.9nM, HLA-DRB1 30 nM, biotinylated peptide 15nM, duplicate wells; ratios below 10 = good binding; reference peptide PVDLHAFLSQAVFS
# Experimental: (§1) Quantitative peptide-MHCII competition binding assays were carried out to determine binding avidities of the 18 20-mer FVIII peptides to 6 HLA-DRB1. Data are presented as ratio between reference peptide IC50/FVIII-peptide IC50 tested. Briefly, non-biotinylated FVIII peptides have been diluted at a concentration of 20 mM in DMSO. 10-µl aliquots of serially diluted (90.000nM – 0.9nM in n-Octyl b-D-Glucopyranoside, 2.5 mg/ml in 1x phosphate buffer, pH 5.9) of non-biotinylated FVIII peptides, were added to duplicate wells of 96-well polypropylene plates. Serially diluted non-FVIII reference peptides known to bind to the specific HLA-DRB1 were added to separate wells as positive controls. Next, the biotinylated peptide at a concentration of 2mM was use to prepare 1000-fold pre-dilution to reach a final concentration of 15nM. The HLA-DRB1 proteins were diluted to 30 nM in n-Octyl β-D-Glucopyranoside, 2.5 mg/ml in 1x phosphate buffer, pH 5.9. […] SA-HRP (diluted 5000x in 1xPBS 0.1% Tween20) was added to each well. The plates were covered and incubated at room temperature for 60 min […] and washed. TMB (100 μl/well) was then added, and the plates were incubated at room temperature for 15-30 min. ELISA stopping solution (0.5M H2SO4) was added and then read on a FLUOstar OPTIMA fluorometer. Sigmoidal binding curves were simulated and IC50 values calculated for the FVIII peptides, based on their competition with the reference peptides for each HLA-DRB1. Data were reported as the ratio between the values of the tested peptide and of the reference peptide. Ratios below 10 correspond to good biding affinity.
# [3] = target: HLA-DRB1*0401 (Homo sapiens, UniProt P01903+P01911, A100K/A169T/F76Y/I96L/K127E/L162R/M171V/N62H/P40V/Q125Y/R42H/S133A/S149N/S66Y/V115G/V209L/W38E); experiment: Peptide-MHCII competition binding assay; conditions: competition ELISA, pH 5.9, peptide 90.000nM – 0.9nM, HLA-DRB1 30 nM, biotinylated peptide 15nM, duplicate wells; ratios below 10 = good binding; reference peptide […]
# Experimental: as §1
# [4] = target: HLA-DRB1*1101 (Homo sapiens, UniProt P01903+P01911, A100R/A169T/A87E/I96F/K41T/L162R/M171V/P40S/Q125H/Q178H/Q39Y/Q99D/R42S/S66Y/T262R/V115G/W38E); experiment: Peptide-MHCII competition binding assay; conditions: competition ELISA, pH 5.9, peptide 90.000nM – 0.9nM, HLA-DRB1 30 nM, biotinylated peptide 15nM, duplicate wells; ratios below 10 = good binding; reference peptide […]
# Experimental: as §1
# [5] = target: HLA-DRB1*0101 (Homo sapiens, UniProt P01903+P01911, A100R/D57E/F55L/F60I/F76Y/I96L/L162R/M171V/P40L/Q125E/R42F/V115G/Y59C); experiment: Peptide-MHCII competition binding assay; conditions: competition ELISA, pH 5.9, peptide 90.000nM – 0.9nM, HLA-DRB1 30 nM, biotinylated peptide 15nM, duplicate wells; ratios below 10 = good binding; reference peptide […]
# Experimental: as §1
Sequence,nb positive T cell lines [1],cumulative donor coverage (%) [1],Donor coverage ( %) [1],responding donors [1],response intensity ( %) [1],Ratio IC50 DRB1*0701 [2],Ratio IC50 DRB1*0401 [3],Ratio IC50 DRB1*1101 [4],Ratio IC50 DRB1*0101 [5]
"ATRRYYLGAVELSWDYMQSD [P20-39, 20-mer FVIII peptide, A1 domain]",43,81%,62%,10,"4,93%",0.5,1.7,0.8,–
"DHLFNIAKPRPPWMGLLGPT [P75-94, 20-mer FVIII peptide, A1 domain]",38,81%,69%,11,"4,36%",1,27,1.8,747
"HPQSWVHQIALRMEVLGCEA [P2328-2347, 20-mer FVIII peptide, C2 domain]",23,–,56%,9,"2,64%",1,1240,2,1.6
"INGYIMDTLPGLVMAQDQRI [P1940-1959, 20-mer FVIII peptide, A3 domain]",14,94%,56%,9,"1,61%",1.1,0.1,0.5,6
"KARLHLQGRSNAWRPQVNNP [P2226-2245, 20-mer FVIII peptide, C2 domain]",12,–,56%,9,"1,38%",0.05,3,1.9,0.2
"KEPFSWIKVDLLAPMIIHGI [P2084-2103, 20-mer FVIII peptide, C1 domain]",20,94%,56%,9,"2,29%",–,1.9,–,–
"KKEEYKMALYNLYPGVFETV [P1986-2005, 20-mer FVIII peptide, A3 domain]",18,–,50%,8,"2,06%",0.2,622.5,–,182
"KLARLHYSGSINAWSTKEPF [P2068-2087, 20-mer FVIII peptide, C1 domain]",20,–,50%,8,"2,29%",0.35,0.2,4.6,70.5
"LGQFLLFCHISSHQHDGMEA [P322-341, 20-mer FVIII peptide, A1 domain]",27,81%,62%,10,"3,10%",0.6,–,0.05,–
"LLTRYLRIHPQSWVHQIALR [P2320-2339, 20-mer FVIII peptide, C2 domain]",10,–,50%,8,"1,15%",0.05,76,1,1
"LSHVDLVKDLNSGLIGALLV [P178-197, 20-mer FVIII peptide, A1 domain]",19,81%,56%,9,"2,18%",0.4,0.05,0.1,1.7
PPIIARYIRLHPTHYSIRST [P2161-2180],21,–,56%,9,"2,41%",0.05,5.6,0.4,1
"RHYFIAAVERLWDYGMSSSP [P1715-1734, 20-mer FVIII peptide, A3 domain]",16,–,50%,8,"1,83%",1,138,–,20.4
"SLYISQFIIMYSLDGKKWQT [P2114-2133, 20-mer FVIII peptide, C1 domain]",10,–,50%,8,"1,15%",0.1,0.6,0.4,0.2
"VHSIFLEGHTFLVRNHRQAS [P285-304, 20-mer FVIII peptide, A1 domain]",44,75%,75%,12,"5,05%",2,57.6,0.0,163
